Consider 16 molecules from ChEMBL document CHEMBL4265889, “Design and synthesis of tetrahydropyridopyrimidine based Toll-Like Receptor (TLR) 7/8 dual agonists” (Bioorg Med Chem Lett, 2018).

Structures are written as SMILES.

The nature of data set [1]: Cytotoxicity against HEK293 cells transfected with the CMV-TLR7 construct assessed as reduction in cell viability after 6 hrs by ATPlite assay. Type of data set: cell-based. As to conditions: human.
The species entered for data set [2] is Homo sapiens. As to the kind of experiment: Selectivity index, ratio of MEC for human TLR8 to MEC for human TLR7.
Data set [3] concerns the target T1, Toll-like receptor 7 (Homo sapiens) (UniProt Q9NYK1).
T1 sequence (whole entry): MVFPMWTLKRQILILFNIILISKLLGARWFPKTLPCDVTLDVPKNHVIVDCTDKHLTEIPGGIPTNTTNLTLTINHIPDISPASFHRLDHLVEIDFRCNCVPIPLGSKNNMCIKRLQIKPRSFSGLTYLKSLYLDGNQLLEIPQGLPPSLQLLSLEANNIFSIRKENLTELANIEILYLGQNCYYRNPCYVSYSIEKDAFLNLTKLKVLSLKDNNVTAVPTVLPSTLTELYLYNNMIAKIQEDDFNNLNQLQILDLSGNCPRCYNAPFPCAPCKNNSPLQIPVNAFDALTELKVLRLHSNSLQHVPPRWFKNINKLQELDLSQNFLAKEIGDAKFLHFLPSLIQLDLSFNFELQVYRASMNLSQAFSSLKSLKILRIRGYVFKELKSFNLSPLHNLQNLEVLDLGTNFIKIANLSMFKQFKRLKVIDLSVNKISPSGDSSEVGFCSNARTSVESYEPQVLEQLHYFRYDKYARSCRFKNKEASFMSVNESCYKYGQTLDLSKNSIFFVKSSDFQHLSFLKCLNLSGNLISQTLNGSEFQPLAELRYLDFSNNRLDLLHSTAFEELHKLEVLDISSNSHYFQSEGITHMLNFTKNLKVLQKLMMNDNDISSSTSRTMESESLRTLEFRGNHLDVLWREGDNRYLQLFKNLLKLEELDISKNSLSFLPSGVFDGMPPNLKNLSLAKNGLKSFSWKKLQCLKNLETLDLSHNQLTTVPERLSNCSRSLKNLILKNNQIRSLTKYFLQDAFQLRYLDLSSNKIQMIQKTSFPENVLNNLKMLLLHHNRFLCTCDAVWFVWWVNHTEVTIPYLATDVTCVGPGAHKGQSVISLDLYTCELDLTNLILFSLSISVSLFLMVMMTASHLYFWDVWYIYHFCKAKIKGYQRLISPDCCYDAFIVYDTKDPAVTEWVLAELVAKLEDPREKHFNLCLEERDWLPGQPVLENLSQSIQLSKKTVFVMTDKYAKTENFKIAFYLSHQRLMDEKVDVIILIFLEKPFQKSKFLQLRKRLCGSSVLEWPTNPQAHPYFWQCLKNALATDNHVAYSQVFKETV
As to the kind of experiment: Agonist activity at human TLR7 expressed in HEK293 cells after 6 hrs by NFkappaB-luciferase reporter gene assay. The data set is classed as cell-based. A general note: In a reporter assay the amount or activity of a reporter protein is the signal.

For data set [4], the target named is T2, Toll-like receptor 8 (Homo sapiens) (UniProt Q9NR97).
T2 sequence (whole entry): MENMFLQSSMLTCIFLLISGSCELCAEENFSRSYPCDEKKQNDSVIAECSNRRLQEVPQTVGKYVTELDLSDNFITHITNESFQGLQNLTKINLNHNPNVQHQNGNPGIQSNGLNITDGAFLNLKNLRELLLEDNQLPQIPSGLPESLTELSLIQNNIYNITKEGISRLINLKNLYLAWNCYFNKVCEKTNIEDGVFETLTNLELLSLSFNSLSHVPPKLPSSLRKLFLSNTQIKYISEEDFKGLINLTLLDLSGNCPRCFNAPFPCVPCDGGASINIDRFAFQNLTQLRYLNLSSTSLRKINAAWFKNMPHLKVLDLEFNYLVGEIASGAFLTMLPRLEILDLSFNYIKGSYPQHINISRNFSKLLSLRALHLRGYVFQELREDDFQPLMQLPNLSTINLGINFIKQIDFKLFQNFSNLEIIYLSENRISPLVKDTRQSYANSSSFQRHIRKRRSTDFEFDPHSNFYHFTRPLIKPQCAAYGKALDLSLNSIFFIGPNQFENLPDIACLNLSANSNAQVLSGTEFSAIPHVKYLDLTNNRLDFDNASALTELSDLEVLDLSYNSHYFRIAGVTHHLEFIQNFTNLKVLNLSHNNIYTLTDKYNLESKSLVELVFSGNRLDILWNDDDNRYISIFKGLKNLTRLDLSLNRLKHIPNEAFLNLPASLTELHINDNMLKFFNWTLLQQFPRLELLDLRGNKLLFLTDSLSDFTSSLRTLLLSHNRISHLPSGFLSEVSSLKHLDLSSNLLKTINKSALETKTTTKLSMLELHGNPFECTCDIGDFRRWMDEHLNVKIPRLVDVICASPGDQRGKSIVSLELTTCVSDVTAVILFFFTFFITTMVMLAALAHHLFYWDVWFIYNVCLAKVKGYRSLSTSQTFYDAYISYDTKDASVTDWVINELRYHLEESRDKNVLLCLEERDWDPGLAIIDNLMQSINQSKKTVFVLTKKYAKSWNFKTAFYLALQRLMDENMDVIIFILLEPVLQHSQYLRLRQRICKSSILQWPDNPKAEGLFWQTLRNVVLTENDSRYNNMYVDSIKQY
As to the kind of experiment: Agonist activity at human TLR8 expressed in HEK293 cells after 6 hrs by NFkappaB-luciferase reporter gene assay. Type of data set: cell-based.

Data set [5] has as its target T1, Toll-like receptor 7 (Homo sapiens). As to the kind of experiment: Agonist activity at TLR7 in human PBMC assessed as suppression of HCV replicon replication in human HuH7 luc/neo cells harboring RNA encoding bicistronic expression construct comprising wild type HCV type 1b NS3-NS5B regions exposed to conditioned media from compound treated PBMCs after 24 hrs by luciferase reporter gene assay. The data set is classed as cell-based. For orientation: Replicon systems follow genome replication, usually without infectious particles.

Data set [6] in a line: Drug metabolism in human liver microsomes at 1 uM after 15 mins. The data set is classed as ADME, microsome. As to conditions: read-out: Drug metabolism. (In general: Liver microsomes are a subcellular fraction often used to study metabolism.)
Data set [7] deals with Voltage-gated inwardly rectifying potassium channel KCNH2 (Homo sapiens, UniProt Q12809). As to the kind of experiment: Displacement of 3H-dofetilide from human ERG.
Chain of Voltage-gated inwardly rectifying potassium channel KCNH2 (Q12809 whole entry): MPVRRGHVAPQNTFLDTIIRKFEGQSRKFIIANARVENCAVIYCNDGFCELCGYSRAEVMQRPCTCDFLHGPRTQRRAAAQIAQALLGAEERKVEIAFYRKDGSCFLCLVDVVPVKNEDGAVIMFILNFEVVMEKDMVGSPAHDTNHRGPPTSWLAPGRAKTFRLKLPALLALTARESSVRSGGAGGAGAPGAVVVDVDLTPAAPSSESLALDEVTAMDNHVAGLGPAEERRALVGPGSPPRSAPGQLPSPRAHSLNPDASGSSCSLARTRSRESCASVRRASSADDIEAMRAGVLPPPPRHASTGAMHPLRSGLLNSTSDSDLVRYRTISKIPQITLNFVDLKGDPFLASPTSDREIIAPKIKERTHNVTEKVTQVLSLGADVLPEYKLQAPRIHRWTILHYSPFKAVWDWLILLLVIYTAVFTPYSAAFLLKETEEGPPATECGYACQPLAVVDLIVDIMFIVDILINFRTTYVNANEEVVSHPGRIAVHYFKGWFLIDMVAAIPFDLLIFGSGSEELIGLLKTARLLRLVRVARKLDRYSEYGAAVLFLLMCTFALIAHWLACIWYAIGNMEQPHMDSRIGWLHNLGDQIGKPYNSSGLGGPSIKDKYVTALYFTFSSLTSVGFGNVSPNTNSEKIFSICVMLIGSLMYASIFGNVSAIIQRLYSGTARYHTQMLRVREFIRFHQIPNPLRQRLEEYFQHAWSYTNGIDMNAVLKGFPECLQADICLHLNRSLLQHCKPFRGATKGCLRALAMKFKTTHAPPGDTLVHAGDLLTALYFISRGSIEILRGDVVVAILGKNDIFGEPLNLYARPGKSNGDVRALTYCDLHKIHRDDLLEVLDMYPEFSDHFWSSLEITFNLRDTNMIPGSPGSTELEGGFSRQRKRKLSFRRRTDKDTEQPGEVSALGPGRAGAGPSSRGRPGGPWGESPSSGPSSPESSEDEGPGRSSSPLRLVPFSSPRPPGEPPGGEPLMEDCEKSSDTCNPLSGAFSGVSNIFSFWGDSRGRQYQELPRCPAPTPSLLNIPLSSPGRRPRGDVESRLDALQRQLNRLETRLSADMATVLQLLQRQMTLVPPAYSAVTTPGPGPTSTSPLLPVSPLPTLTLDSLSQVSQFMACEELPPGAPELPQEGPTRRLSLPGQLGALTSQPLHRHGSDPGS
Data set [8] is described as follows: Drug metabolism in mouse liver microsomes at 1 uM after 15 mins. The settings on record: read-out: Drug metabolism. The data set is classed as ADME, microsome.

Usually CC50 stands for the concentration giving 50% cytotoxicity. As for `CCCCNc1nc(N)nc2c1CCN(C(=O)c1ccccc1)C2`, the CC50 at 6 h in data set [1] was more than 24 µM. Also, the Selectivity Index in data set [2] was 5. The MEC in data set [3] was determined as 3.9 µM; in data set [4], 0.8 µM.
The term IC50 denotes the midpoint of a concentration-inhibition curve. The low end stands for higher potency, the high end for lower potency. For the molecule `CCCC[C@@H](CCO)Nc1nc(N)nc2c1CN(C(=O)c1csc(C)n1)CC2`, the MEC is 0.2 µM in data set [5], 1 µM in data set [3] and 6.6 µM in data set [4]. Besides, the CC50 at 6 h in data set [1] was more than 24 µM. For the same molecule, the metabolised at 0.25 h, 1 µM came to 30% in data set [6] and 71% in data set [8]. Also, in data set [7], the IC50 is more than 50 µM.
For the molecule `CCCC[C@@H](CCO)Nc1nc(N)nc2c1CN(C(=O)c1cccs1)CC2`, the MEC was determined as 0.2 µM in data set [5], 0.2 µM in data set [3] and 1.7 µM in data set [4]. Besides, the CC50 at 6 h in data set [1] was more than 24 µM. The values for the metabolised at 0.25 h, 1 µM in data set [6] and in data set [8] were 37% and 90%, respectively. Also, the IC50 in data set [7] was found to be 6.9 µM.
Take `CCCCNc1nc(N)nc2c1CN(C(=O)C1CCC1)CC2`: the MEC in data set [5] was determined as 0.23 µM; in data set [3], 0.8 µM; in data set [4] it was 0.4 µM. In data set [1], the CC50 at 6 h is more than 24 µM.
The like results for `CCCCNc1nc(N)nc2c1CN(Cc1ccc(C(C)(C)C)cc1)CC2` were, in that order, 2.79 µM, 19 µM, 0.66 µM and more than 24 µM.
Turning to `CCCCNc1nc(N)nc2c1CN(C(=O)c1cccs1)CC2`, the results for the MEC in data set [5], in data set [3] and in data set [4] were 0.07 µM, 0.2 µM and 0.4 µM, respectively. Further, the CC50 at 6 h in data set [1] was more than 24 µM. In addition, the metabolised at 0.25 h, 1 µM in data set [8] is 99%.
Regarding `CCCCNc1nc(N)nc2c1CN(Cc1cccs1)CC2`, the MEC in data set [5] came to 0.16 µM; in data set [3], 2.5 µM; in data set [4], 0.14 µM. In addition, the CC50 at 6 h in data set [1] was more than 24 µM.
Taken in the same sequence, the figures for `CCCCNc1nc(N)nc2c1CN(Cc1cccc(OC)c1Cl)CC2` were 0.05 µM, 1 µM, 0.04 µM and more than 24 µM.
Take `CCCCNc1nc(N)nc2c1CN(C(=O)c1csc(C)n1)CC2`: the MEC in data set [5] came to 0.53 µM; in data set [3] it was 2 µM; in data set [4], 1.8 µM. Also, the CC50 at 6 h in data set [1] was more than 24 µM. The molecule further gave an IC50 in data set [7] of 1.3 µM. The metabolised at 0.25 h, 1 µM in data set [8] is 88%.
Consider `CCCCNc1nc(N)nc2c1CN(C(=O)c1cnccn1)CC2`, for which the MEC in data set [5] came out at 2.38 µM; in data set [3] it was 3.7 µM; in data set [4], 2.2 µM. The CC50 at 6 h in data set [1] is more than 24 µM.
The like results for `CCCCNc1nc(N)nc2c1CN(C(=O)c1csc(N)n1)CC2` were, in that order, 1.05 µM, 8 µM, 6.9 µM and more than 24 µM.
The like results for `CCCCNc1nc(N)nc2c1CN(Cc1ccc(C(F)(F)F)cc1)CC2` were, in that order, 0.54 µM, 2.8 µM, 0.23 µM and more than 24 µM.
With `CCCCNc1nc(N)nc2c1CN(C(=O)c1cocn1)CC2`, the MEC in data set [5] was found to be 0.17 µM; in data set [3], 0.7 µM; in data set [4], 0.2 µM. The CC50 at 6 h in data set [1] is more than 24 µM.
The like results for `CCCCNc1nc(N)nc2c1CN(C(=O)c1ccccn1)CC2` were, in that order, 2.21 µM, 9.5 µM, 2.9 µM and more than 24 µM.
For `CCC[C@@H](CCO)Nc1nc(N)nc2c1CN(C(=O)c1cccs1)CC2`, the MEC in data set [5] turned out to be 0.2 µM; in data set [3], 0.2 µM; in data set [4] it was 1.1 µM. In addition, in data set [1], the CC50 at 6 h is more than 24 µM. The figures for the metabolised at 0.25 h, 1 µM in data set [6] and in data set [8] were 22% and 73%, respectively. In data set [7], this molecule showed an IC50 of 7.6 µM.
Take `CCCCNc1nc(N)nc2c1CN(Cc1c[nH]c3ccccc13)CC2`: the MEC in data set [5] is 0.18 µM; in data set [3], more than 20 µM; in data set [4], 0.22 µM. Besides, in data set [1], the CC50 at 6 h was more than 24 µM.
